Publication PMC10984466, “Structure-based identification of salicylic acid derivatives as malarial threonyl tRNA-synthetase inhibitors” (PLOS ONE, 2024)
Where two headings read alike, the source gives them in different places.

Target: T1, PfThrRS (Plasmodium falciparum, UniProt Q8IIA4)
T1 construct: made in house; host or cells: E. coli BL21(DE3)
T1 sequence (Q8IIA4 21-1013): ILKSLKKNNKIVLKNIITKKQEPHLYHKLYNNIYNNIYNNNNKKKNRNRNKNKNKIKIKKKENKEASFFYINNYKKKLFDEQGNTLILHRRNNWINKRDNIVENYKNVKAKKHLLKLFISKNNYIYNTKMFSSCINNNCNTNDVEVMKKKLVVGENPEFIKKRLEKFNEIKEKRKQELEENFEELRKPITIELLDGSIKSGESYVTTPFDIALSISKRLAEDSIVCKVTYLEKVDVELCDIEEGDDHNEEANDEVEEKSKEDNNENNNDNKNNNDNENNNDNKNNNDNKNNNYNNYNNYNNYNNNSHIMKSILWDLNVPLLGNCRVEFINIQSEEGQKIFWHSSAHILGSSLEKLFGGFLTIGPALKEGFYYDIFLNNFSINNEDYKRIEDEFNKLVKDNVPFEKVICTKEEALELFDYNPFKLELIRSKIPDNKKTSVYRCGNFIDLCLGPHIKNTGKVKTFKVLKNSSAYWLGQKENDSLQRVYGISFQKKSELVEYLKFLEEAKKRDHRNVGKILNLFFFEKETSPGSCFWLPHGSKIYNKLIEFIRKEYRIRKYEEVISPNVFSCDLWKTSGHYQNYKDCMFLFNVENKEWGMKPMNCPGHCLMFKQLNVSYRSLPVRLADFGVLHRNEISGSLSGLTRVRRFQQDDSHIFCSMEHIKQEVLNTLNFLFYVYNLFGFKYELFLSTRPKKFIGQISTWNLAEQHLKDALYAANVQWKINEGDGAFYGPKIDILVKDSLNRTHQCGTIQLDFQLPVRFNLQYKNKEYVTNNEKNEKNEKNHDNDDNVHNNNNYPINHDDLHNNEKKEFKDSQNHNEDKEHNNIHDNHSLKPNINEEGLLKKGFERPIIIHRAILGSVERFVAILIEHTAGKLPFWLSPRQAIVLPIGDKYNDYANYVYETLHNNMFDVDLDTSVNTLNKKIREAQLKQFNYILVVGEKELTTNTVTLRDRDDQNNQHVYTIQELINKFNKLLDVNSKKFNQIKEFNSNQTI
Experiment: In vitro PfThrRS inhibition assay (aminoacylation activity, ATP consumption by Kinase-Glo luminescence)
Type: biochemical
Settings: for LE (ligand efficiency): PfThrRS inhibitors, Fig 4 and text
Protocol: The bioassay protocol was adapted from the literature. The aminoacylation activity of PfThrRS in the presence of compounds was determined by measuring ATP consumption in the enzymatic reaction by using recombinant PfThrRS and P. falciparum cell extract as a source of t-RNA. ATP consumption was determined by Kinase-Glo® Reagent (Promega Inc.). The luminescence was read on a Tecan Infinite M1000 microplate reader. The inhibitory rate was measured in three independent assays. Borrelidin was obtained from commercial sources and used as a reference compound.

[1] = Table SI1, adenosine binding subsite substituent
[2] = Table SI1, adenosine binding subsite substituent, fraction of PfThrRS inhibited at 100 µM, read-out: ThrRS inhibition @100 µM, %
[3] = Table SI3, zinc ion binding group, fraction of PfThrRS inhibited at 100 µM, read-out: ThrRS inhibition @100 µM, %
[4] = Table SI2, arginine binding group, fraction of PfThrRS inhibited at 100 µM, read-out: ThrRS inhibition @100 µM, %

IC50 [1] [µM] | inhibition at 100 µM [2] [%] | Structure (SMILES) | also measured
13.1 ± 1.4 | 100 | O=C(O)c1cc(S(=O)(=O)Nc2ccccc2)ccc1O [7a, 2-Hydroxy-5-(N-phenylsulfamoyl)benzoic acid] | LE (ligand efficiency) (listed as 7): 0.34
 |  | COC(=O)c1cc(S(=O)(=O)Nc2ccccc2)ccc1O [7b, Methyl 2-hydroxy-5-(N-phenylsulfamoyl)benzoate] | inhibition at 100 µM [3]: 19 ± 8%
 |  | O=C(NO)c1cc(S(=O)(=O)Nc2ccccc2)ccc1O [7c, N,2-dihydroxy-5-(N-phenylsulfamoyl)benzamide] | inhibition at 100 µM [3]: 16 ± 7%
 |  | O=C(O)c1cc(S(=O)(=O)Nc2ccccc2)ccc1S [7d, 2-Mercapto-5-(N-phenylsulfamoyl)benzoic acid] | inhibition at 100 µM [3]: 16 ± 11%
 |  | COc1ccc(S(=O)(=O)Nc2ccccc2)cc1C(=O)O [7e] | inhibition at 100 µM [3]: 11 ± 7%
 |  | O=C(O)c1cccc(S(=O)(=O)Nc2ccccc2)c1 [7f] | inhibition at 100 µM [3]: 2 ± 4%
 |  | O=C(O)c1cc(S(=O)(=O)Nc2ccccc2)ccc1F [7g] | inhibition at 100 µM [3]: 0%
 |  | O=C(O)CC(O)(Cc1ccccc1)c1ccc(O)c(C(=O)O)c1 (stereo not drawn) [7h, 5-(1-Carboxy-2-hydroxy-3-phenylpropan-2-yl)-2-hydroxybenzoic acid] | inhibition at 100 µM [4]: 10 ± 8%
 |  | O=C(O)c1cc(C(Nc2ccccc2)C(=O)O)ccc1O (stereo not drawn) [7i, 5-(Carboxy(phenylamino)methyl)-2-hydroxybenzoic acid] | inhibition at 100 µM [4]: 0%
 |  | O=C(O)c1cc(S(=O)(=O)c2ccccc2)ccc1O [7j, 2-Hydroxy-5-(phenylsulfonyl)benzoic acid] | inhibition at 100 µM [4]: 11 ± 10%
31 ± 2 | 100 | O=C(Nc1cccc(C(F)(F)F)c1)c1cccc(NS(=O)(=O)c2ccc(O)c(C(=O)O)c2)c1 [7k] | 
32 ± 2 | 100 | O=C(O)c1cc(S(=O)(=O)Nc2cc(Cl)ccc2Oc2ccccc2)ccc1O [7l] | 
31 ± 2 | 93 | CCCCc1ccc(NS(=O)(=O)c2ccc(O)c(C(=O)O)c2)cc1 [7m] | 
46 ± 2 | 88 | O=C(O)c1cc(S(=O)(=O)Nc2ccc(I)cc2)ccc1O [7n] | 
32 ± 2 | 84 | O=C(O)c1cc(S(=O)(=O)Nc2ccc(Br)cc2)ccc1O [7o] | 
46 ± 3 | 80 ± 9 | COc1cccc(-c2cccc(NS(=O)(=O)c3ccc(O)c(C(=O)O)c3)c2)c1 [7p, 2-Hydroxy-5-(N-(3’-methoxy-[1,1’-biphenyl]-3-yl)sulfamoyl)benzoic acid] | 
55 ± 3 | 67 ± 11 | O=C(O)c1cc(S(=O)(=O)Nc2ccc(Cc3ccccc3)cc2)ccc1O [7q, 5-(N-(4-benzylphenyl)sulfamoyl)-2-hydroxybenzoic acid] | 

IC50 [1] [µM] | inhibition at 100 µM [2] [%] | Structure (SMILES) | also measured
76 ± 4 | 64 | O=C(O)c1cc(S(=O)(=O)Nc2cccc(Cl)c2)ccc1O [7r] | 
67 ± 3 | 63 | Cc1ccc(NS(=O)(=O)c2ccc(O)c(C(=O)O)c2)cc1 [7s] | 
 |  | O=C(O)c1cc(S(=O)(=O)Nc2ccc(Oc3ccccc3)cc2)ccc1O [7t, 2-Hydroxy-5-(N-(4-phenoxyphenyl)sulfamoyl)benzoic acid] | inhibition at 100 µM (100 μM compound, Figs 6, 8, 12, read-out: PfThrRS inhibition @100 μM, %): 58 ± 9%
89 ± 4 | 58 | O=C(O)c1cc(S(=O)(=O)Nc2ccc3oc(=O)sc3c2)ccc1O [7u] | 
84 ± 4 | 57 | O=C(O)c1cc(S(=O)(=O)Nc2cccc3ccccc23)ccc1O [7v] | 
 | 31 ± 10 | O=C(O)c1cc(S(=O)(=O)Nc2ccc(Cl)cc2)ccc1O [7w] | 
 | 7 ± 1 | O=C(O)c1cc(S(=O)(=O)Nc2cccc(-c3ccccc3)c2)ccc1O [7x, 5-(N-([1,1’-biphenyl]-3-yl)sulfamoyl)-2-hydroxybenzoic acid] | 
 | 35 ± 11 | O=C(O)c1cc(S(=O)(=O)Nc2ccc(Oc3ccccc3)cc2)ccc1O [LVV-455] | 
 |  | Cc1c(C(=O)O)nnn1-c1sc2c(c1C(=O)O)CCCC2 [compound 8] | LE (ligand efficiency): 0.33; IC50 (verified HTVS hits, Fig 4): 10.3 ± 1.2 µM
 |  | O=C(O)CCS(=O)(=O)c1ccc2c(c1)OCCCO2 [compound 9] | LE (ligand efficiency): 0.30; IC50 (verified HTVS hits, Fig 4): 75 ± 5 µM
 |  | O=C(c1ccn(-c2ccc(F)cc2)n1)N1CCC(O)(C(=O)O)C1 (stereo not drawn) [compound 10] | LE (ligand efficiency): 0.29; IC50 (verified HTVS hits, Fig 4): 19 ± 2 µM
 |  | Cc1nc2cc(NC(=O)C3C4C=CC(C4)C3C(=O)O)ccc2o1 (stereo not drawn) [compound 11] | LE (ligand efficiency): 0.27; IC50 (verified HTVS hits, Fig 4): 39 ± 4 µM
 |  | O=C(O)CCc1nc2c(O)nc(SCc3ccccc3F)[nH]c-2nc1=O [compound 12] | LE (ligand efficiency): 0.27; IC50 (verified HTVS hits, Fig 4): 12.1 ± 1.6 µM
 |  | O=C(O)c1cc(C2CCN(C(=O)C[C@H]3CCCCO3)CC2)no1 [compound 13] | LE (ligand efficiency): 0.26; IC50 (verified HTVS hits, Fig 4): 65 ± 5 µM
 |  | Cc1csc2ncc(C(=O)N[C@H]3Cc4ccc(C(=O)O)cc4C3)n12 [compound 14] | LE (ligand efficiency): 0.25; IC50 (verified HTVS hits, Fig 4): 49 ± 5 µM
 |  | CCCCC[C@H](O)CC[C@@H]1[C@H]2Cc3cccc(OCC(=O)O)c3C[C@H]2C[C@H]1O [compound 15, Remodulin, reference compound] | LE (ligand efficiency): 0.25; IC50 (verified HTVS hits, Fig 4): 12.5 ± 1.5 µM
